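These data come from cells grown in 96-well plates and exposed to compound for 48 hours at five concentrations. Here, GI50 denotes the concentration required for 50% inhibition of growth. TGI is the concentration that stops growth completely.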
Tests used:
Experiment in all cases: DTP human tumour cell line panel, 48 h
CAKI-1 renal = tested on: CAKI-1 renal
HOP-92 NSCLC = tested on: HOP-92 NSCLC
K-562 leukemia = tested on: K-562 leukemia
OVCAR-3 ovarian = tested on: OVCAR-3 ovarian
OVCAR-8 ovarian = tested on: OVCAR-8 ovarian
RXF 393 renal = tested on: RXF 393 renal
SR leukemia = tested on: SR leukemia
UO-31 renal = tested on: UO-31 renal
DU-145 prostate = tested on: DU-145 prostate
SK-MEL-2 melanoma = tested on: SK-MEL-2 melanoma

| SMILES | TGI (CAKI-1 renal) | TGI (HOP-92 NSCLC) | TGI (K-562 leukemia) | TGI (OVCAR-3 ovarian) | TGI (OVCAR-8 ovarian) | TGI (RXF 393 renal) | TGI (SR leukemia) | TGI (UO-31 renal) | TGI (DU-145 prostate) | TGI (SK-MEL-2 melanoma) | GI50 (CAKI-1 renal) | GI50 (HOP-92 NSCLC) | GI50 (K-562 leukemia) | GI50 (OVCAR-3 ovarian) | GI50 (OVCAR-8 ovarian) | GI50 (RXF 393 renal) | GI50 (SK-MEL-2 melanoma) | GI50 (SR leukemia) | GI50 (UO-31 renal) | GI50 (DU-145 prostate) |
| --- | --- | --- | --- | --- | --- | --- | --- | --- | --- | --- | --- | --- | --- | --- | --- | --- | --- | --- | --- | --- |
| O=C1CC(CC(=O)C2CCCCC2=O)C(=O)N1 (stereo unspecified) | > 100 µM | > 100 µM | > 100 µM | > 100 µM | > 100 µM | > 100 µM | > 100 µM | > 100 µM | – | – | – | – | – | – | – | – | – | – | – | – |
| C1CSCCCSCCCSCCCSCCCSCCCSCCCSCCCSC1 | > 100 µM | > 100 µM | > 100 µM | > 100 µM | > 100 µM | > 100 µM | – | > 100 µM | > 100 µM | > 100 µM | – | – | – | – | – | – | – | – | – | – |
| O=C(N/N=C/c1ccccc1O)N/N=C/c1ccccc1O | – | > 100 µM | > 100 µM | > 100 µM | > 100 µM | > 100 µM | – | > 100 µM | – | > 100 µM | – | – | – | – | – | – | – | – | – | – |
| C/C=C/C(C#N)O[Si](C)(C)C (stereo unspecified) | > 100 µM | > 100 µM | – | > 100 µM | > 100 µM | > 100 µM | – | > 100 µM | – | > 100 µM | – | – | – | – | – | – | – | – | – | – |
| Cc1c(OC(C)C(=O)O)ccc2c(-c3ccccc3)cc(=O)oc12 (stereo unspecified) | > 100 µM | > 100 µM | > 100 µM | > 100 µM | > 100 µM | > 100 µM | > 100 µM | > 100 µM | – | – | – | – | – | – | – | – | – | – | – | – |
| Cn1c(=O)c(N=Nc2c(=O)n(C)c(=O)n3c2[nH]c2ccccc23)c2[nH]c3ccccc3n2c1=O | > 100 µM | > 100 µM | > 100 µM | > 100 µM | > 100 µM | > 100 µM | – | > 100 µM | – | > 100 µM | – | – | – | – | – | – | – | – | – | – |
| O=C(NCCCOC(=O)CCCCCCCCC(=O)OCCCNC(=O)NC(=O)c1c[nH]c(=O)[nH]c1=O)NC(=O)c1c[nH]c(=O)[nH]c1=O | > 100 µM | > 100 µM | > 100 µM | > 100 µM | > 100 µM | – | – | – | – | > 100 µM | – | – | – | – | – | – | – | – | – | – |
| c1cc[c]([Sn][c]2ccccc2)cc1 | > 92.3 µM | 47.5 µM | 69 µM | 35 µM | 58.8 µM | 36.5 µM | 45.3 µM | 38.5 µM | – | 37.7 µM | 24 µM | 19 µM | 25.2 µM | 17.8 µM | 24 µM | 12.4 µM | 15.9 µM | 18.6 µM | 19.4 µM | – |
| COc1cc(C)ccc1C(=O)c1ccc(C)cc1OC | 92.3 µM | – | > 100 µM | 6.55 µM | > 100 µM | 4.53 µM | > 100 µM | > 100 µM | 83.6 µM | > 100 µM | 2.3 µM | – | 0.619 µM | 2.1 µM | 4.89 µM | 1.66 µM | 2.45 µM | 0.567 µM | 5.74 µM | 3.45 µM |
| CC(=O)OCc1c2ccccc2c(C)c2c1cc(F)c1ccccc12 | 98 µM | > 100 µM | 78.9 µM | 57.5 µM | 47.4 µM | 57.9 µM | > 100 µM | > 100 µM | – | 35.2 µM | – | – | – | – | – | – | – | – | – | – |
| CCOC(=O)NC(=O)c1cn(CCN2CCN(C(=O)NCCCCCCNC(=O)N3CCN(CCn4cc(C(=O)NC(=O)OCC)c(=O)[nH]c4=O)CC3)CC2)c(=O)[nH]c1=O | – | > 100 µM | > 100 µM | > 100 µM | > 100 µM | > 100 µM | > 100 µM | > 100 µM | – | > 100 µM | – | – | – | – | – | – | – | – | – | – |
| CC(=O)c1c(O)c(C)c(O)c(Cc2c(O)c3c(c(C(=O)/C=C/c4ccccc4)c2O)OC(C)(C)C=C3)c1O | 9.07 µM | 6.08 µM | 14.7 µM | 15.8 µM | 23.7 µM | – | – | 8.19 µM | 41.1 µM | 4.09 µM | – | – | – | – | – | – | – | – | – | – |
| COc1cc(/C=C/C(=O)/C=C/c2cc(OC)c3c(c2)OCO3)cc2c1OCO2 | > 100 µM | > 100 µM | > 100 µM | > 100 µM | 12.9 µM | 6.57 µM | – | > 100 µM | > 100 µM | > 100 µM | > 100 µM | 58.5 µM | 22.9 µM | 7.66 µM | 2.83 µM | 2.65 µM | > 100 µM | – | 5.77 µM | 18.4 µM |
| COC(=O)/C(=N\NC(C)(C)C)C(C(=O)OC)C(=O)C(=O)Nc1cc(Cl)ccc1Cl (stereo unspecified) | > 100 µM | > 100 µM | > 100 µM | > 100 µM | > 100 µM | > 100 µM | > 100 µM | > 100 µM | – | > 100 µM | – | – | – | – | – | – | – | – | – | – |
| C=C(c1ccccc1)C1(O)CCCCC1N (stereo unspecified) | > 100 µM | > 100 µM | > 100 µM | > 100 µM | > 100 µM | > 100 µM | 72.8 µM | > 100 µM | – | > 100 µM | – | – | – | – | – | – | – | – | – | – |
| Cc1nc(C(N)=O)c(N)n1CCN1CCN(C(=O)CCCCCCCCCCNC2N=CNc3nc[nH]c32)CC1 (stereo unspecified) | – | > 100 µM | > 100 µM | > 100 µM | > 100 µM | – | 43.3 µM | > 100 µM | – | 44.5 µM | – | – | – | – | – | – | – | – | – | – |
| Nc1ncnc2c1ncn2C1OC(CSCC(F)(F)F)C(O)C1O (stereo unspecified) | > 100 µM | > 100 µM | > 100 µM | > 100 µM | > 100 µM | > 100 µM | > 100 µM | > 100 µM | – | > 100 µM | – | – | – | – | – | – | – | – | – | – |
| CCc1cccc(C)c1NS(=O)(=O)c1ccccc1 | > 100 µM | – | > 100 µM | > 100 µM | > 100 µM | > 100 µM | – | > 100 µM | – | > 100 µM | – | – | – | – | – | – | – | – | – | – |
| O=C1Nc2ccccc2C1(O)C/C(=N/O)c1ccc2ccccc2c1 (stereo unspecified) | – | – | > 100 µM | > 100 µM | > 100 µM | > 100 µM | – | > 100 µM | – | > 100 µM | – | – | – | – | – | – | – | – | – | – |
| CN1N=CSC12C(=O)N(c1ccccc1)C(=O)N2c1ccccc1 (stereo unspecified) | > 100 µM | – | > 100 µM | > 100 µM | > 100 µM | > 100 µM | – | > 100 µM | – | > 100 µM | – | – | – | – | – | – | – | – | – | – |
| COc1cc(Cl)cc(=O)c(O)c1OC | – | – | > 100 µM | > 87.2 µM | > 100 µM | > 100 µM | > 100 µM | > 100 µM | – | > 100 µM | – | – | – | – | – | – | – | – | – | – |
| O=c1cc(-c2cccs2)[nH]c2cc3c(cc12)OCO3 | – | > 100 µM | > 100 µM | > 28.5 µM | 27.7 µM | 8.38 µM | > 100 µM | > 100 µM | – | > 48 µM | – | – | – | – | – | – | – | – | – | – |
